Assay results from patent publication US20240101603A1, “ANTIBACTERIAL PEPTIDES AND COMPOUNDS TARGETING TOXIN-ANTITOXIN SYSTEM OF […], AND THEIR USE” (SEOUL NATIONAL UNIVERSITY R&DB FOUNDATION, priority 2021, published 2024).
Entries after “also recorded” stand apart in the source; their conditions may differ. Read-outs that look alike come from different tables or passages of the source.

Key:
free VapC = test: Effect on RNase activity of free VapC; format: biochemical, Klebsiella pneumoniae; settings: substance added to free VapC
Procedure: (§1) The RNase activity of VapC and VapC mutants was confirmed using an RNase Alert Kit (Integrated DNA Technologies, Inc.). In this analysis, each well contained 50 pm of synthetic RNA with a fluorophore at one end and a quencher group at the other end. The quencher was separated when the prepared RNA was contacted by RNase. Then, fluorescence (RFU) generated during the 1 hour reaction period was detected using a SPECTRAmax GEMINI XS spectrometer (Molecular Devices) at 490 nm (excitation wavelength) and 520 nm (emission wavelength), respectively. For this analysis, the purified VapC and VapC mutants were treated with 10 mM EDTA to remove metal ions and exchanged with a purification buffer containing 10 mM Mg^2+. In each experiment, the concentrations of both VapC and VapC mutants were 10 μM. To prevent contamination, 40 units of RiboLock (Thermoscientific) were added to each well.
However, if the peptide contains the residues that interact with the nucleic acid binding site of VapC, which is the active site of VapC, the destructive ability is suppressed. Accordingly, in this example, the effect of the peptide of the present invention on the activity of free VapC was analyzed.
Through three tests, a total of 400 compounds were narrowed down to 25 according to the inhibitory efficacy ranking. […]

VapBC complex = biological target: T1, VapBC complex (Klebsiella pneumoniae subsp. pneumoniae, UniProt A6TG81); test: VapBC complex disruption assay (RNase activity of VapC released from the complex); format: biochemical; settings: for VapBC complex disruption efficacy: 1 μM compound added to 10 μM VapBC complex, compared with peptides at 100 μM; for IC50: inhibition curves, 10 μM VapBC complex; for VapBC complex disruption efficacy (RNase activity relative to VapC): 100 μM peptide added to 10 μM VapBC complex
T1 sequence (A6TG81 1-127): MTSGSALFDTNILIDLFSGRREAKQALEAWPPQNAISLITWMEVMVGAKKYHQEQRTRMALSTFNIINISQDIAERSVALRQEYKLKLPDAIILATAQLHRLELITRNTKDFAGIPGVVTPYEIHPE
T1 sequence (A6TG80 1-82 partner): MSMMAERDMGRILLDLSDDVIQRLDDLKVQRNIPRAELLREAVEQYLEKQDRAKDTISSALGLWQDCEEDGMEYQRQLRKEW
Procedure: as §1
In this example, the peptide (100 μM) synthesized in Example 1 was added to the VapBC complex (10 μM) and the RFU of the activated VapC toxin was measured. Other experimental protocols were the same as those for the RNase activity test of VapC and VapC mutants (Experimental Method 5). Upon addition of the peptide of the present invention to the VapBC complex, the inhibitory efficacy of the peptide can be estimated by measuring the RNase activity generated by the free VapC released by the disruption of the VapBC complex.
Using a similar analysis method as in the design of peptides that activate VapC, the inhibitory effect of the compounds was ranked according to the degree of RNase activity by the free VapC released due to the disruption of the VapBC complex. That is, the small molecules were added to the VapBC complex (10 μM) and the efficacy of the small molecules to activate VapC was tested. Other experimental protocols were the same as those described for the peptide-induced complex disruption assay (Examples 2 and 3).

VapC = biological target: T2, VapC (Klebsiella pneumoniae subsp. pneumoniae, UniProt A6TG81); test: Isothermal titration calorimetry (ITC), binding to VapC
T2 sequence (A6TG81 1-127): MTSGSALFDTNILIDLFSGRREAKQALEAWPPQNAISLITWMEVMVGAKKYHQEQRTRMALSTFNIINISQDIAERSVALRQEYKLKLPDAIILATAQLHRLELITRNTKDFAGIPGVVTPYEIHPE
Procedure: ITC was performed using MicroCal200 (GE Healthcare). The concentrations of protein and DNA were determined using NanoDrop (Thermo) at 280 nm and 260 nm, respectively. Stock solutions of peptides and small molecules were prepared at appropriate concentrations. Titration was performed at 25° C. The data were calculated by subtracting the background and fitted to a single-site binding model using the provided source-based software with MicroCal200.

[1] = biological target: Klebsiella pneumoniae VapC toxin (kpn_04186) with N-terminal tag (Klebsiella pneumoniae (MGH78578)); test: ITC, 25 °C, single-site binding model
[2] = 25° C., single-site binding model
[3] = 25° C., single-site binding model, read-out: Kd
[4] = read-out: Kd (affinity to VapC)

CCC1Oc2cc(S(=O)(=O)N3CCCC(C(=O)Nc4ccc(F)cc4)C3)c(C)cc2NC1=O (stereo not drawn) [Compound 2, 1-((2-ethyl-6-methyl-3-oxo-3,4-dihydro-2H-benzo[b][1,4]oxazine-7-yl)sulfonyl)-N-(4-fluorophenyl)piperidine-3-carboxamide]
RNase activity of free VapC after treatment (free VapC): did not affect the RNase activity of VapC
VapBC complex disruption efficacy (VapBC complex): higher efficacy at 1 μM
IC50 (VapBC complex): 400 nM
TΔS (VapC; 25° C.): 1.39 kcal/mol
ΔG (VapC; 25° C.): -7.71 kcal/mol
ΔH (VapC; 25° C.): -9.1 ± 0.06 kcal/mol
n (the binding stoichiometry) (VapC; [2]): 0.99 ± 0.004
Kd (VapC; [3]): 22 ± 0.2 nM

Klebsiella pneumoniae VapB antitoxin (kpn_04185)
Kd [1]: 3 nM
TΔS [1]: -16.4 kcal/mol
n (the binding stoichiometry) [1]: 0.97
ΔH [1]: -28.1 kcal/mol

GMEYARQL [VapB^71-78, Q75A]
VapBC complex disruption efficacy (RNase activity relative to VapC) (VapBC complex): higher activity than VapB^71-78
TΔS (VapC; 25° C.): -1.53 kcal/mol
ΔG (VapC; 25° C.): -12.33 kcal/mol
ΔH (VapC; 25° C.): -10.8 ± 0.02 kcal/mol
n (the binding stoichiometry) (VapC; [2]): 0.99 ± 0.001
Kd (VapC; [4]): 150 nM

GMEYQRQL [VapB^71-78]
TΔS (VapC; 25° C.): -8.4 kcal/mol
ΔG (VapC; 25° C.): -26.3 kcal/mol
ΔH (VapC; 25° C.): -17.9 ± 0.07 kcal/mol
n (the binding stoichiometry) (VapC; [2]): 1.02 ± 0.002
Kd (VapC; [4]): 110 nM

GMEAQRQL [VapB^71-78, Y74A]
VapBC complex disruption efficacy (RNase activity relative to VapC) (VapBC complex): highest efficacy among all the designed peptides; also recorded: higher activity than VapB^71-78
TΔS (VapC; 25° C.): -4.17 kcal/mol
ΔG (VapC; 25° C.): -17.57 kcal/mol
ΔH (VapC; 25° C.): -13.4 ± 0.02 kcal/mol
n (the binding stoichiometry) (VapC; [2]): 0.99 ± 0.001
Kd (VapC; [4]): 170 nM

NC(=O)NC(=O)CCN1CCC(C(=O)c2ccc(O)cc2)CC1 [Compound 1, N-carbamoyl-3-(4-(4-hydroxybenzoyl)piperidine-1-yl)propanamide]
RNase activity of free VapC after treatment (free VapC): did not affect the RNase activity of VapC
VapBC complex disruption efficacy (VapBC complex): higher efficacy at 1 μM
IC50 (VapBC complex): 420 nM
TΔS (VapC; 25° C.): 1.93 kcal/mol
ΔG (VapC; 25° C.): -6.37 kcal/mol
ΔH (VapC; 25° C.): -8.3 ± 0.03 kcal/mol
n (the binding stoichiometry) (VapC; [2]): 0.98 ± 0.002
Kd (VapC; [3]): 35 ± 0.4 nM

GMEAARQL [VapB^71-78, Y74A, Q75A]
VapBC complex disruption efficacy (RNase activity relative to VapC) (VapBC complex): lower efficacy than the VapB peptide in which either one was mutated to alanine

B1: Peptide VapB^71-78, Y74A (peptide)
peptide: GMEAQRQL
Kd [1]: 170 nM
TΔS [1]: -4.17 kcal/mol
n (the binding stoichiometry) [1]: 0.99
ΔH [1]: -13.4 kcal/mol

B2: Peptide VapB^71-78 (peptide)
peptide: GMEYQRQL
Kd [1]: 110 nM
TΔS [1]: -8.4 kcal/mol
n (the binding stoichiometry) [1]: 1.02
ΔH [1]: -17.9 kcal/mol

B3: Peptide VapB^71-78, Q75A (peptide)
peptide: GMEYARQL
Kd [1]: 150 nM
TΔS [1]: -1.53 kcal/mol
n (the binding stoichiometry) [1]: 0.99
ΔG [1]: -12.3 kcal/mol
ΔH [1]: -10.8 kcal/mol
